Data: patent EP0011821A2, “Antiseborrhoeic hair treatment composition” (Henkel Kommanditgesellschaft auf Aktien, priority 1978, dated 1980)

Tested on: Meerschweinchen
Test: Test for anti-dandruff effect on oleic-acid-treated back skin of shorn guinea pigs (skin fold thickness and visual scaling score)
Type: in vivo
Conditions: 5 % test substance with 5 % Ölsäure in 70 %igem Ethanol, topical on the back, 60 min exposure on 4 consecutive days, relative to skin treated with 5 % Ölsäure in 70 % Ethanol only, significant (+, 95 %)
Source text: Die Prüfung auf Antischuppenwirkung wurde in folgender Weise durchgeführt:
Die Prüfsubstanz wurde in 5 % iger Konzentration zusammen mit 5 % Ölsäure in 70 %igem Ethanol gelöst und in alternierender Reihenfolge und in rotierendem Schema auf den Rücken junger, geschorener weiblicher Meerschweinchen im Gewicht von 600 ± 50 g aufgetragen. Die Einwirkungszeit der Substanz wurde dabei auf 60 Minuten begrenzt, da diese Zeit ausreichte, um eine Wirkung zu erzielen. Anschließend wurden die Tiere mit warmem Wasser 30 Sekunden lang abgeduscht. Die Reihenfolge der Tiere bei der Applikation wechselte dabei täglich, um Differenzen in der Einwirkungszeit zwischen dem ersten und letzten Tier der Gruppe auf ein Minimum zu begrenzen. Diese Behandlung geschah an vier aufeinanderfolgenden Tagen, darauf folgte eine Ruhezeit (Entwicklungszeit von drei Tagen). Am siebenten Tag wurde ausgewertet, und zwar a) kutimetrisch auf Hautfaltendicke instrumentell mit dem Cutimeter nach Götze und b) visuell auf Schuppenbildung bzw. Hemmung nach einer 4-Punkte-Skala folgender Definition: • 0 = keine Schuppen • 1 = leichte Schuppen • 2 = kräftige Schuppen • 3= starke Schuppen mit Rötung • 4 = Krusten mit Aufrichten der Haare.
Die Versuchsgruppe bestand aus 6 Tieren. Das Kollektiv wurde mathematisch auf Homogenität geprüft und nach Eliminierung signifikant abweichender Tiere wurden Mittelwert und Streuung berechnet. […]

With `COc1ccc(Cc2nccc3cc(OC)c(OC)cc23)cc1OC` [Papaverin, 1-(3',4'-dimethoxybenzyl)-6,7-dimethoxy-isochinolin] the “Hautdickenmessung Hemmung %” value (evaluated on day 7 with the Cutimeter nach Götze) was 17% and the “Hautschuppenmessung Hemmung %” value (evaluated visually on day 7 on a 0-4 scale) was 100%.
